Laboratory results from US10793531B2, “Triazole derivatives and their use as PDE4 activators” (MIRONID LIMITED, priority 2015, dated 2020).

Tested on: MDCK cells
Assay: Inhibition of in vitro cyst formation in MDCK cells (Experiment 3)
Format: cell-based, canine
Conditions: compound added every 2 days from day 0 to day 20, with forskolin and vasopressin; FIG. 7
Experimental: In this study, the well-established three-dimensional (3D) MDCK cell model was used to investigate the effects of PDE4 long form activators on the formation of kidney cysts and evaluate their potential in the treatment of polycystic kidney diseases. 3D cysts were generated based on the method of Mao et al. (Mao, Z., Streets, A. J., Ong, A. C. M. Am. J. Physiol. Renal Physiol. 300(6): F1375-F1384, 2011), with some modifications. MDCK cells (50,000 cells/well) were seeded into collagen (Life Technologies; final concentration 1 mg/mL), containing 17 mM NaOH in DMEM, supplemented with 2% (v/v) FBS, 2 mM L-glutamine and 2 mM L-glutamine, 1,000 U penicillin and 1,000 μg streptomycin (DMEM-2% FBS), on ice. Upon gelling at 37° C., 1 mL of DMEM-2% FBS was added along with the test compound indicated in the presence of 10 μM forskolin (Sigma) and 1 μg/mL [Arg^8]-vasopressin acetate salt (Sigma). Media was replenished every 2 days for 20 days; at every feed, test compound, forskolin and vasopressin were added.
Phase-contrast images were obtained on the Motic microscope (×200 magnification) every 2 days for 20 days. Per condition, 10 images were taken (in duplicate) and the average cyst radius measured.

CCc1nc(-c2ccc(Cl)c(F)c2)nn1CC(=O)NCc1cccc(F)c1 [Example A, N-(3-Fluorobenzyl)-2-[3-(4-chloro-3-fluorophenyl)-5-ethyl-1H-1,2,4-triazol-1-yl]acetamide]
in vitro cyst formation in MDCK cells, inhibition (in words): inhibition of in vitro cyst formation
